The data set deals with L-929 mouse fibroblast cells. It counts as cell-based. The settings on record: 10 ppm. How it is done: Comparative studies are conducted to evaluate the cytotoxicity of individual aqueous lens disinfecting and preservative solutions containing PHMB, benzalkonium chloride and chlorhexidine. The studies utilize the Agar Overlay Assay Technique published in the Journal of Pharmaceutical Sciences, Vol. 54 (1965) pp 1545-1547 by W. L. Guess et al. The technique utilized is similar to the Zone of Inhibition Method of Otten et al (Example VII), however, when the lenses are removed from the preservative solutions they are only rinsed with isotonic saline solution to remove residual preservative. The lenses are then placed on L-929 mouse fibroblast cells to ascertain the presence of any cytotoxic response or cell inflammation which is noted by a lysing of the cells.

Here are results for one compound from patent EP0180309B2, “Improved disinfecting and preserving solutions for contact lenses and methods of use” (priority 1984, dated 1986).

`[H]/N=C(\N/C(=N/[H])NCCCCCCNC(=N)NC(=N)Nc1ccc(Cl)cc1)Nc1ccc(Cl)cc1` [Chlorhexidine, chlorhexidine gluconate]: the “Percent Cells Lysed” value is 0/0 and the “Width of Decolorized Zone” value is reported as 0/0.
